Bridge positions count the residues as written; N and C are the ends. Peptide text beside a SMILES is read from it.
Legend:
[1] = test system: HUVEC; test: Cytotoxicty against HUVEC after 24 hrs by MTT assay; format: cell-based; conditions: Homo sapiens
[2] = test system: HeLa; test: Cytotoxicty against human HeLa cells after 24 hrs by MTT assay; format: functional, cell-based
[3] = test system: PC-3; test: Cytotoxicty against human PC3 cells after 24 hrs by MTT assay; format: functional, cell-based; conditions: PC-3, 24 h
[4] = test system: Erythrocyte; test: Hemolytic activity in human red blood cells after 1 hr; format: ADME, cell-based

| Structure (SMILES) | IC50 [1] [nM] | IC50 [2] [nM] | IC50 [3] [nM] | IC50 [4] [µM] |
| --- | --- | --- | --- | --- |
| CC(C)C[C@@H]1NC(=O)CNC(=O)[C@H](CC(N)=O)NC(=O)[C@H](CCCNC(=N)N)NC(=O)[C@H]([C@@H](C)O)NC(=O)[C@@H]2CSSC[C@@H]3NC(=O)[C@H]([C@@H](C)O)NC(=O)CNC(=O)CNC(=O)[C@H](C(C)C)NC(=O)[C@@H]4CSSC[C@H](NC(=O)[C@H](CO)NC(=O)[C@H](CSSC[C@H](NC(=O)[C@H](C(C)C)NC(=O)[C@@H]5CCCN5C1=O)C(=O)NCC(=O)N[C@@H](CCC(=O)O)C(=O)N[C@@H]([C@@H](C)O)C(=O)N4)NC(=O)CNC(=O)[C@@H]1CCCN1C(=O)[C@H]([C@@H](C)O)NC(=O)[C@H](CC(N)=O)NC3=O)C(=O)N[C@@H](CO)C(=O)N[C@@H](Cc1c[nH]c3ccccc13)C(=O)N1CCC[C@H]1C(=O)N[C@@H](C(C)C)C(=O)N2 | 4000 | 5200 | 3600 | ≥ 50 |
| CC[C@H](C)[C@@H]1NC(=O)[C@@H]2CSSC[C@@H]3NC(=O)[C@H](C(C)C)NC(=O)[C@H](CCCCN)NC(=O)[C@H](CO)NC(=O)[C@H](CCCCN)NC(=O)[C@@H]4CSSC[C@H](NC(=O)[C@H](CO)NC(=O)[C@H](CCC(=O)O)NC(=O)CNC(=O)[C@H](CSSC[C@H](NC(=O)CNC(=O)[C@H](CC(C)C)NC(=O)[C@H](C)NC(=O)[C@H](C)NC(=O)[C@H]([C@@H](C)O)NC1=O)C(=O)N[C@H](CO)C(=O)N4)NC(=O)[C@@H]1CCCN1C(=O)[C@H]([C@@H](C)CC)NC(=O)CNC(=O)[C@H](CC(N)=O)NC(=O)[C@H](CCCNC(=N)N)NC(=O)[C@H](Cc1ccc(O)cc1)NC3=O)C(=O)N[C@@H](C(C)C)C(=O)N[C@@H](Cc1ccc(O)cc1)C(=O)N[C@@H]([C@@H](C)CC)C(=O)N1CCC[C@H]1C(=O)N2 | 400 | 500 | 500 | 11.1 |
| CC[C@H](C)[C@@H]1NC(=O)[C@@H]2CSSC[C@@H]3NC(=O)[C@H](C(C)C)NC(=O)[C@H](CCCCN)NC(=O)[C@H](CO)NC(=O)[C@H](CCCCN)NC(=O)[C@@H]4CSSC[C@H](NC(=O)[C@H](CO)NC(=O)[C@H](CCC(=O)O)NC(=O)CNC(=O)[C@H](CSSC[C@H](NC(=O)CNC(=O)[C@@H](CC(C)C)NC(=O)[C@H](CC(C)C)NC(=O)[C@H]([C@@H](C)O)NC(=O)[C@H](CO)NC1=O)C(=O)N[C@@H](CO)C(=O)N4)NC(=O)[C@@H]1CCCN1C(=O)[C@H]([C@@H](C)CC)NC(=O)[C@H](C(C)C)NC(=O)CNC(=O)[C@H](CC(N)=O)NC(=O)[C@H](CCCNC(=N)N)NC(=O)[C@H](Cc1ccc(O)cc1)NC3=O)C(=O)N[C@@H](C(C)C)C(=O)N[C@@H](Cc1ccccc1)C(=O)N[C@@H]([C@@H](C)CC)C(=O)N1CCC[C@H]1C(=O)N2 | 1200 | 1800 | 1100 | – |
| CC[C@H](C)[C@@H]1NC(=O)[C@H](C)NC(=O)[C@H](CO)NC(=O)[C@H](CO)NC(=O)[C@H]([C@@H](C)CC)NC(=O)[C@@H]2CSSC[C@@H]3NC(=O)[C@H](C(C)C)NC(=O)[C@H](CCCCN)NC(=O)[C@H](CO)NC(=O)[C@H](CCCCN)NC(=O)[C@@H]4CSSC[C@H](NC(=O)[C@H](CO)NC(=O)[C@H](CCC(=O)O)NC(=O)CNC(=O)[C@H](CSSC[C@H](NC(=O)CNC1=O)C(=O)N[C@@H](CO)C(=O)N4)NC(=O)[C@@H]1CCCN1C(=O)[C@H]([C@@H](C)CC)NC(=O)CNC(=O)[C@H](CC(N)=O)NC(=O)[C@H](CCCNC(=N)N)NC(=O)[C@H](Cc1ccc(O)cc1)NC3=O)C(=O)N[C@@H](C(C)C)C(=O)N[C@@H](Cc1c[nH]c3ccccc13)C(=O)N[C@@H]([C@@H](C)CC)C(=O)N1CCC[C@H]1C(=O)N2 (cyclo(AIGCSCKSKVCYRNGIPCGESCVWIPCISS); disulfide 4-18, 6-22, 11-27) | 600 | 700 | 800 | – |
| CC[C@H](C)[C@@H]1NC(=O)[C@H](C)NC(=O)[C@H](C)NC(=O)[C@H](CO)NC(=O)[C@H]([C@@H](C)CC)NC(=O)[C@@H]2CSSC[C@@H]3NC(=O)[C@H](C(C)C)NC(=O)[C@H](CCCCN)NC(=O)[C@H](CO)NC(=O)[C@H](CCCCN)NC(=O)[C@@H]4CSSC[C@H](NC(=O)[C@H](CO)NC(=O)[C@H](CCC(=O)O)NC(=O)CNC(=O)[C@H](CSSC[C@H](NC(=O)CNC1=O)C(=O)N[C@@H](CO)C(=O)N4)NC(=O)[C@@H]1CCCN1C(=O)[C@H]([C@@H](C)CC)NC(=O)CNC(=O)[C@H](CC(N)=O)NC(=O)[C@H](CCCNC(=N)N)NC(=O)[C@H](Cc1ccc(O)cc1)NC3=O)C(=O)N[C@@H](C(C)C)C(=O)N[C@@H](Cc1c[nH]c3ccccc13)C(=O)N[C@@H]([C@@H](C)CC)C(=O)N1CCC[C@H]1C(=O)N2 [CYCLOVIOLACIN O13] (cyclo(AAIGCSCKSKVCYRNGIPCGESCVWIPCIS); disulfide 5-19, 7-23, 12-28) | 500 | 700 | 600 | 14.9 |
